Assay [1] deals with P. aeruginosa (ATCC 27853). The experiment in a line: Disk diffusion antimicrobial test, P. aeruginosa. The following applies: Pseudomonas aeruginosa, ATCC27853, Gram-negative, 20 mg per disc (title), concentration 20 µg (footnote). It counts as cell-based, Pseudomonas areuginosa. How it is done:
(§1) The newly synthesized compounds were chosen to be evaluated in vitro towards a variety of pathogenic microorganisms; Gram-positive bacteria: S. aureus (ATCC 6538) and B. subtilis (ATCC 6633); Gram-negative bacteria: P. areuginosa (ATCC 27853) and E. coli (DSMZ 1058); yeast: C. albicans (ATCC 10231) and S. cerevisiae (ATCC 9080) and fungi: A. niger (NRRL A-326) using the disk diffusion method at a single dose of 20 µl. The results are shown in Table 1 as the growth inhibition zone (mm).
The antimicrobial activity of target compounds were evaluated to be in vitro against a variety of pathogenic microorganisms, namely Staphylococcus aureus (ATCC 6538), Bacillus subtilis (ATCC 6633) (Gram-positive bacteria), Pseudomonas areuginosa (ATCC 27853), Escherichia coli (DSMZ 1058) (Gram-negative bacteria), Candida albicans (ATCC 10231), Saccharomyces cerevisiae (ATCC 9080) (Yeast) and Aspergillus niger (NRRL A-326) (Fungi) using the disk diffusion method at a single dose of 20 µg. The microorganisms were served and obtained from the Microbial Biotechnology Department, National Research Center, Giza, Egypt. Amphotericin, amoxicillin and ciprofloxacin were used as reference drugs (Oxoid™ Disks). The tested compounds 11a–c, 12a–c, 13a–i, 14a–i and 15a,b were dissolved in dimethylsulphoxide (DMSO) at a concentration of 1 mg/mL. Aliquots of 20 μl were soaked on filter paper discs (6 mm) and dried at room temperature under sterilized conditions. The paper discs were placed on inoculated agar plats and then incubated for 24 h at 37 °C for bacterial strains and after 48–72 h incubation at 30 °C for fungi. Both bacterial and yeast strains were grown on nutrient agar medium (g/l): beef extract, 3; peptone, 10 and agar, 20 at pH of 7.2. The fungal strain was grown on Czapek-Dox medium (g/l): sucrose, 30; NaNO3, 3; MgSO4.7H2O, 0.5l; KCl, 0.5; FeSO4, 0.01; K2HPO4, 1 and agar, 20 at pH of 6.0.

Assay [2] concerns E. coli (DSMZ 1058). The assay can be described thus: Disk diffusion antimicrobial test, E. coli. It counts as cell-based. The note with it: Escherichia coli, DSMZ1058, Gram-negative, 20 mg per disc (title), concentration 20 µg (footnote). Here is the method:
as §1
The antimicrobial activity of target compounds were evaluated to be in vitro against a variety of pathogenic microorganisms, namely Staphylococcus aureus (ATCC 6538), Bacillus subtilis (ATCC 6633) (Gram-positive bacteria), Pseudomonas areuginosa (ATCC 27853), Escherichia coli (DSMZ 1058) (Gram-negative bacteria), Candida albicans (ATCC 10231), Saccharomyces cerevisiae (ATCC 9080) (Yeast) and Aspergillus niger (NRRL A-326) (Fungi) using the disk diffusion method at a single dose of 20 µg. The microorganisms were served and obtained from the Microbial Biotechnology Department, National Research Center, Giza, Egypt. Amphotericin, amoxicillin and ciprofloxacin were used as reference drugs (Oxoid™ Disks). The tested compounds 11a–c, 12a–c, 13a–i, 14a–i and 15a,b were dissolved in dimethylsulphoxide (DMSO) at a concentration of 1 mg/mL. […]

SMILES strings stand for the structures.

`O=C(O)c1cn(C2CC2)c2cc(N3CCNCC3)c(F)cc2c1=O` [Ciprofloxacin, ciprofloxacin, reference compound]: the zone of inhibition at 20 µg/disc in assay [1] came to 30.2 mm; in assay [2] it was 25.8 mm.

For the origin of these results see paper PMC7179167 (Molecules, 2020).
